# Tested on: M. tuberculosis H37Rv growth inhibition
# Experiment: Mycobacterium tuberculosis H37Rv growth inhibition, putative kinase inhibitor library, confirmatory dose response (AID 2842);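 note: bacteria incubated one week before Alamar blue readout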
row,Structure (SMILES),IC90
1,CC(=O)N1CCc2c(sc(NC(=O)c3ccc(-c4ccccc4)cc3)c2C(N)=O)C1,20.4 µg/mL
2,CCCOc1ccc(S(=O)(=O)Nc2ccc3c(c2)CCC(=O)N3CC)cc1,13 µg/mL
3,O=C(Cc1ccccc1)Nc1nnc(-c2ccc(F)cc2)o1,8.35 µg/mL
4,CCOC(=O)N1CCc2c(sc(NC(=O)C3COc4ccccc4O3)c2C(N)=O)C1 (configuration not stated),8.19 µg/mL
5,CCCCC(=O)Nc1nnc(-c2ccc3c(c2)OCCO3)o1,9.06 µg/mL
6,COc1cccc(-c2nnc(NC(=O)c3ccc(Cl)s3)o2)c1,< 0.2 µg/mL
7,O=C(Nc1nnc(-c2ccc3c(c2)CCCC3)o1)c1ccc([N+](=O)[O-])s1,0.68 µg/mL
8,CC(C)(C)c1ccc(C(=O)Nc2nnc(-c3ccco3)o2)cc1,1.18 µg/mL
9,Cc1ccc(-c2nnc(SCC(=O)Nc3cc(C)on3)o2)cc1,3.95 µg/mL
10,Cc1ccc(C)c(-c2nnc(NC(=O)c3ccc([N+](=O)[O-])cc3)o2)c1,78.5 µg/mL
11,Cc1ccc(-c2nnc(NC(=O)c3ccccc3[N+](=O)[O-])o2)c(C)c1,15.7 µg/mL
12,COc1cc(Br)cc(/C=N/Nc2nc(=O)[nH]nc2C)c1O,< 0.2 µg/mL
13,COc1cccc(Nc2cc(C)nc3c(-c4ccccc4)cnn23)c1,1.83 µg/mL
14,CCCCC(=O)Nc1nnc(-c2ccc(Br)cc2)o1,2.3 µg/mL
15,Cc1ccc2sc(N(CCCn3ccnc3)C(=O)c3cccs3)nc2c1C,0.54 µg/mL
16,O=C(Cc1cccc2ccccc12)Nc1nnc(-c2cc(Cl)ccc2Cl)o1,94.5 µg/mL
17,COc1cccc2sc(Nc3nc4c(F)cccc4s3)nc12,14.5 µg/mL
18,Cc1ccc(C)c(-c2nnc(NC(=O)Cc3ccccc3)o2)c1,18.2 µg/mL
19,O=C(Nc1nccs1)c1ccc2c(c1)CCCC2,3.85 µg/mL
20,O=C(Cc1cccc2ccccc12)Nc1nnc(-c2ccco2)o1,6.89 µg/mL
21,Cn1c(/C(C#N)=C/c2c[nH]c3ccccc23)nc2ccccc21,10.2 µg/mL

row,Structure (SMILES),IC90
1,Cc1ccc(C)c2[nH]c(=O)c(CCNC(=S)NCCn3ccc4ccccc43)cc12,3.53 µg/mL
2,OC(CNCc1ccco1)Cn1c2ccc(Cl)cc2c2cc(Cl)ccc21 (configuration not stated),1.71 µg/mL
3,COc1cc(/C=C(\C#N)c2nc(-c3ccc(C)cc3)cs2)cc([N+](=O)[O-])c1O,3.26 µg/mL
4,COc1cc(C(=O)Nc2nnc(-c3ccc4c(c3)CCCC4)o2)cc(OC)c1OC,44.2 µg/mL
5,CCS(=O)(=O)c1cccc(C(=O)Nc2nnc(-c3ccc(Br)cc3)o2)c1,7.76 µg/mL
6,Cc1ccc(-c2nnc(NC(=O)c3ccco3)o2)c(C)c1,4.51 µg/mL
7,COc1ccc(O)c(/C=N/NC(=O)c2ccncc2)c1,0.82 µg/mL
8,CCCCc1ccc(NCCn2c(C)c(C)n3c4c(=O)[nH]c(=O)n(C)c4nc23)cc1,12.6 µg/mL
9,O=C(Nc1nnc(-c2cc(Cl)ccc2Cl)o1)C1=COCCO1,25.7 µg/mL
10,CN(c1ccccc1)S(=O)(=O)c1ccc(C(=O)Nc2nnc(-c3ccco3)o2)cc1,8.33 µg/mL
11,O=C(Nc1nnc(-c2cccs2)o1)c1ccc([N+](=O)[O-])s1,1.69 µg/mL
12,Cc1ccc(C)c(-c2nnc(NC(=O)C(C)C)o2)c1,6.62 µg/mL
13,CSc1cccc2sc(Nc3cccc(Cl)c3)nc12,5.38 µg/mL
14,COc1ccc(-c2nc(N3CCC(C)CC3)nc3n[nH]c(N)c23)cc1,2.14 µg/mL
15,CC(C)(C)C1CCc2c(sc3nnn(CC(=O)NCc4ccco4)c(=O)c23)C1 (configuration not stated),22.3 µg/mL
16,N=c1sc(/C=C2\C=Nc3ccccc32)c(O)n1-c1nccs1,< 0.2 µg/mL
17,Cc1cccc(C(=O)Nc2nnc(-c3ccccn3)o2)c1,19.3 µg/mL
18,Cc1cc(NC2CCCC2)n2ncc(-c3ccccc3)c2n1,9.88 µg/mL
19,Fc1cccc2sc(Nc3nc4cc5c(cc4s3)OCO5)nc12,11.1 µg/mL
20,Cc1ccccc1NCCCn1c(C)cn2c3c(=O)[nH]c(=O)n(C)c3nc12,15.4 µg/mL
21,O=C(Nc1nc2c(s1)COc1ccccc1-2)c1cccc(NS(=O)(=O)c2ccc(F)cc2)c1,13.4 µg/mL

row,Structure (SMILES),IC90
1,CC(C)(C)c1ccc(C(=O)Nc2nc(-c3ccc4c(c3)OCO4)cs2)cc1,6.72 µg/mL
2,COC(=O)c1c(NC(=O)c2ccc(C)c(C)c2)sc2c1CCN(C(C)=O)C2,48 µg/mL
3,Cc1cc(Cl)cc2sc(N(CCCn3ccnc3)C(=O)c3ccco3)nc12,< 0.2 µg/mL
4,Cc1cn2c3c(=O)[nH]c(=O)n(C)c3nc2n1CCCN(C)Cc1ccccc1,2.62 µg/mL
5,COc1ccc(OC)c(NC(=O)c2cc3cc(Cl)ccc3oc2=O)c1,0.77 µg/mL
6,O=C(CCN1C(=O)c2ccccc2S1(=O)=O)Nc1ccc(Br)cc1,17.5 µg/mL
7,O=C(Nc1nnc(-c2ccc3c(c2)OCCO3)o1)c1ccccc1Cl,4.5 µg/mL
8,CC1CCN(S(=O)(=O)c2ccc(C(=O)Nc3nnc(-c4cc(Cl)ccc4Cl)o3)cc2)CC1,35.4 µg/mL
9,CCCCCOc1ccc(C(=O)Nc2nnc(-c3ccccn3)o2)cc1,2.15 µg/mL
10,CCN(CC)S(=O)(=O)c1ccc(C(=O)Nc2nnc(-c3cc(Cl)ccc3Cl)o2)cc1,7.57 µg/mL
11,COC(=O)c1ccc(NC(=O)CSc2nc(-c3ccc(C)cc3)ns2)cc1,21.3 µg/mL
12,CN(C)S(=O)(=O)c1ccc(C(=O)Nc2nnc(-c3cc(Cl)ccc3Cl)o2)cc1,3.89 µg/mL
13,c1csc(Nc2nc3cc4c(cc3s2)OCO4)n1,8.57 µg/mL
14,O=C(Nc1nnc(-c2cc(Cl)ccc2Cl)o1)c1cc(Cl)ccc1Cl,0.49 µg/mL
15,Oc1ccc(Nc2nc(NCc3ccccc3)c3ccccc3n2)cc1,2.59 µg/mL
16,CC(C)(C)/C(O)=C(/C#N)c1nc2ccccc2[nH]1,16.6 µg/mL
17,CCCC(=O)Nc1nnc(-c2ccc(Cl)s2)o1,27.2 µg/mL
18,O=C1C(Cl)=C(Nc2ccccc2O)C(=O)N1c1ccccc1,3.29 µg/mL
19,Cc1ccccc1Nc1nc(-c2cccnc2)nc2ccccc12,7.35 µg/mL
20,O=C(/C=C/c1ccccc1)Nc1nc2c(s1)COc1ccccc1-2,6.8 µg/mL
21,COc1ccc(C)c2sc(N(CCCn3ccnc3)C(=O)c3cccs3)nc12,2.4 µg/mL

row,Structure (SMILES),IC90
1,Cc1ccc(-c2nnc(NC(=O)COc3ccccc3)o2)c(C)c1,5.5 µg/mL
2,O=C(Nc1cccc(C(F)(F)F)c1)NC1CC(=O)N(c2cccc(F)c2)C1 (configuration not stated),8.52 µg/mL
3,CC(C)CCNC(=O)c1c(O)nc2sccn2c1=O,13.1 µg/mL
4,CC(=O)CSc1nc2c([nH]c3ccccc32)c(=O)n1-c1cc(C)ccc1C,22 µg/mL
5,Cc1ccccc1C(=O)Nc1nnc(-c2cc(Cl)ccc2Cl)o1,1.27 µg/mL
6,O=C(Nc1nnc(-c2cccs2)o1)c1nc2ccccc2s1,2.98 µg/mL
7,CC(C)c1ccc2nc(Nc3nc4ccc(S(C)(=O)=O)cc4s3)sc2c1,12 µg/mL
8,O=C(Nc1cccc(Cl)c1)Nc1c2c(nn1-c1ccccc1)CSC2,19.7 µg/mL
9,O=C1C(Cl)=C(Nc2ccccc2O)C(=O)N1Cc1ccccc1,5.45 µg/mL
10,O=C(Nc1nnc(-c2ccc3c(c2)OCCO3)o1)c1ccccc1Oc1ccccc1,3.77 µg/mL
11,CS(=O)(=O)c1ccc2nc(Nc3nc4ccc(Cl)cc4s3)sc2c1,9.7 µg/mL
12,O=C(Nc1nnc(C2=COCCO2)o1)c1cc(Cl)cc(Cl)c1,53.7 µg/mL
13,CCOC(=O)c1cnc2ccc(OCC)cc2c1Nc1cccc(C)c1,14.1 µg/mL
14,COc1cccc2sc(Nc3nnc(-c4ccc(F)cc4)o3)nc12,2.97 µg/mL
15,CCOc1ccc(-c2nnc3c4cc5c(cc4n(Cc4cccc(F)c4)cc2-3)OCO5)cc1,54.2 µg/mL
16,Cc1ccc(-c2nnc(NC(=O)c3ccc([N+](=O)[O-])s3)o2)c(C)c1,0.61 µg/mL
17,COc1ccccc1Cn1cc2c(-c3ccc(Cl)cc3)nnc-2c2ccccc21,8.89 µg/mL
18,O=C(Nc1nnc(-c2ccc(Cl)cc2)o1)c1ccc([N+](=O)[O-])o1,0.26 µg/mL
19,CC1(C)CC(=O)c2sc(NC(=O)c3ccc(NS(=O)(=O)c4ccc(Cl)cc4)cc3)nc2C1,15.5 µg/mL

# Reference: PubChem BioAssay AID2842 (Southern Research Institute, 2010)
